The target of experiment [1] is T1, Mitogen-activated protein kinase 13 (Homo sapiens) (UniProt O15264).
T1 sequence (whole entry): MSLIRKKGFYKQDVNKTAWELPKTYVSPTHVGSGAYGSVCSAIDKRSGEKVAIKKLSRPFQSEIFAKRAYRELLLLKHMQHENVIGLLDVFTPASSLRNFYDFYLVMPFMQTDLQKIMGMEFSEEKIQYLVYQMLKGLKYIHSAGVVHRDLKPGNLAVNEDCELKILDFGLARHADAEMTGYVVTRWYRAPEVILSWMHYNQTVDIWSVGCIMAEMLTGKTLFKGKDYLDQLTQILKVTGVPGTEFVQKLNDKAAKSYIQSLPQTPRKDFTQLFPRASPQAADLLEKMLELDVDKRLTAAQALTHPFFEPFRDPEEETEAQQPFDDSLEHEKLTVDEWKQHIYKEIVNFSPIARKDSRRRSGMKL
Briefly: Percentage p38delta activity remaining in the presence of 3uM inhibitor.

The target of experiment [2] is T2, Casein kinase I isoform delta (Homo sapiens, UniProt P48730). Briefly: Percentage CK1delta activity remaining in the presence of 3uM inhibitor.
T2 sequence (P48730 whole entry, looked up, canonical isoform): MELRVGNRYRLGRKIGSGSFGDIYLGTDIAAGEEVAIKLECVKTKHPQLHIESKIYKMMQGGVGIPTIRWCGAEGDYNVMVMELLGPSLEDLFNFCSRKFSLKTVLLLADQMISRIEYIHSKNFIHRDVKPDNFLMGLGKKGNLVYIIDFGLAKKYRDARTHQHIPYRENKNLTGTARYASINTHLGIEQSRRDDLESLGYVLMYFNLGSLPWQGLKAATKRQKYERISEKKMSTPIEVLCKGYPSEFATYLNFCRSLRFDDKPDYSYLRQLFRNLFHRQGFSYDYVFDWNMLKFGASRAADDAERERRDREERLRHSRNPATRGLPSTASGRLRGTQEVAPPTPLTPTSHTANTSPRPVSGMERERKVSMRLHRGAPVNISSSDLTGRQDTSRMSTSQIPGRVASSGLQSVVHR
Experiment [3] concerns the target MAP/microtubule affinity-regulating kinase 3 (Homo sapiens) (UniProt P27448). As to the kind of experiment: Percentage MARK3 activity remaining in the presence of 3uM inhibitor.
Experiment [4] concerns the target Proto-oncogene tyrosine-protein kinase LCK (Mus musculus, UniProt P06240). Briefly: Inhibition of Lck in the presence of 50uM ATP.
In experiment [5] the target is Calcium/calmodulin-dependent protein kinase type 1 (Homo sapiens) (UniProt Q14012). As to the kind of experiment: Percentage CaMK1 activity remaining in the presence of 3uM inhibitor.
In experiment [6] the target is T3, Serine/threonine-protein kinase Nek2 (Homo sapiens) (UniProt P51955).
T3 sequence (whole entry): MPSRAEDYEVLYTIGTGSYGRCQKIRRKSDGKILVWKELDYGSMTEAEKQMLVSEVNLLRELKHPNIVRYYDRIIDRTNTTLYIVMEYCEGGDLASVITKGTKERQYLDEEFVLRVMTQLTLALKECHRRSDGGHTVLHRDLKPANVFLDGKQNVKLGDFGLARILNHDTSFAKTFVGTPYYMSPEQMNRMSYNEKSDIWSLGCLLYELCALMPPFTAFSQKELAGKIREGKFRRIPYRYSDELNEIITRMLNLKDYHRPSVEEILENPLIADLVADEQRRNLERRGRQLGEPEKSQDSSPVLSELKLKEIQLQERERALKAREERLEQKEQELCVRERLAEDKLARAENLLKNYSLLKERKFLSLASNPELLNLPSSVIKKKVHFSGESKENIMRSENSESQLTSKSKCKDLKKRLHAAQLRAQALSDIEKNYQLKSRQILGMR
Briefly: Percentage NEK2a activity remaining in the presence of 3uM inhibitor.

Experiment [7] concerns the target T4, 3-phosphoinositide-dependent protein kinase 1 (Homo sapiens) (UniProt O15530).
T4 sequence (whole entry): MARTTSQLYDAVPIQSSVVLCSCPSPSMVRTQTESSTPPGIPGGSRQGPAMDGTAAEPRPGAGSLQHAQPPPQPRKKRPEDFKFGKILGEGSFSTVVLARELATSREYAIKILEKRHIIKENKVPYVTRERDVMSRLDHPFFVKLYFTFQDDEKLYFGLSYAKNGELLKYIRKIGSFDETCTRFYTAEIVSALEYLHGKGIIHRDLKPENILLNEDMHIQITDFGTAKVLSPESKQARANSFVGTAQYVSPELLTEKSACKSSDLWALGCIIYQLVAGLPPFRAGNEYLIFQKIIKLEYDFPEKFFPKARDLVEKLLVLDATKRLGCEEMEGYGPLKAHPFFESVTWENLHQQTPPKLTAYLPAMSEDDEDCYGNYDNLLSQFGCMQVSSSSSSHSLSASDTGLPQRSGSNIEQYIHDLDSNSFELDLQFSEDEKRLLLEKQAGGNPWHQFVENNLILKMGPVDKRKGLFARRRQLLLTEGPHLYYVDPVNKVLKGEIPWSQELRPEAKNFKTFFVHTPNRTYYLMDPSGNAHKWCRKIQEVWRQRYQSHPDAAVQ
As to the kind of experiment: Percentage PDK1 activity remaining in the presence of 3uM inhibitor.

The target of experiment [8] is MAP kinase-interacting serine/threonine-protein kinase 1 (Homo sapiens) (UniProt Q9BUB5). As to the kind of experiment: Percentage MNK1 activity remaining in the presence of 3uM inhibitor. As to conditions: filed as antagonist.
Chain of MAP kinase-interacting serine/threonine-protein kinase 1 (Homo sapiens) (Q9BUB5 whole entry, looked up): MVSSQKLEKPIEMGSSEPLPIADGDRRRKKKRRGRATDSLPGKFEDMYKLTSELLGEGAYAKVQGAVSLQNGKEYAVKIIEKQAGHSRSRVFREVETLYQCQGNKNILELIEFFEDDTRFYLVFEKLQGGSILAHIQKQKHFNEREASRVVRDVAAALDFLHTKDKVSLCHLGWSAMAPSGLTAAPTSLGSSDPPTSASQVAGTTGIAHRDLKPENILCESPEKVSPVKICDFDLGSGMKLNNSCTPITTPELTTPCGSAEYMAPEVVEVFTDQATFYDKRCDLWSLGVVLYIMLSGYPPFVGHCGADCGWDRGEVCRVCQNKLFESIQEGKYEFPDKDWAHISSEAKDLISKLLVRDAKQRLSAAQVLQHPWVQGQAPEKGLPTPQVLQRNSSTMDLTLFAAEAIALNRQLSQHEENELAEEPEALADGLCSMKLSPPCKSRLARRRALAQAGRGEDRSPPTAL
In experiment [9] the target is Serine/threonine-protein kinase pim-3 (Homo sapiens, UniProt Q86V86). As to the kind of experiment: Percentage PIM3 activity remaining in the presence of 3uM inhibitor.
Experiment [10] addresses Proto-oncogene tyrosine-protein kinase Src (Gallus gallus) (UniProt P00523). Briefly: Percentage Src activity remaining in the presence of 3uM inhibitor. Conditions: filed as antagonist.
Experiment [11] addresses Dual specificity mitogen-activated protein kinase kinase 1 (Homo sapiens) (UniProt Q02750). As to the kind of experiment: Percentage MKK1 activity remaining in the presence of 3uM inhibitor.
A further experiment addresses Ephrin type-A receptor 2 (Homo sapiens, UniProt P29317). Briefly: Inhibition of Eph-A2 in the presence of 50uM ATP.
Experiment [12] has as its target T5, Serine/threonine-protein kinase PAK 4 (Homo sapiens, UniProt O96013). As to the kind of experiment: Percentage PAK4 activity remaining in the presence of 3uM inhibitor.
In experiment [13] the target is Mitogen-activated protein kinase 10 (Homo sapiens) (UniProt P53779). Briefly: Percentage JNK3 activity remaining in the presence of 3uM inhibitor.
Chain of Mitogen-activated protein kinase 10 (Homo sapiens) (P53779 whole entry): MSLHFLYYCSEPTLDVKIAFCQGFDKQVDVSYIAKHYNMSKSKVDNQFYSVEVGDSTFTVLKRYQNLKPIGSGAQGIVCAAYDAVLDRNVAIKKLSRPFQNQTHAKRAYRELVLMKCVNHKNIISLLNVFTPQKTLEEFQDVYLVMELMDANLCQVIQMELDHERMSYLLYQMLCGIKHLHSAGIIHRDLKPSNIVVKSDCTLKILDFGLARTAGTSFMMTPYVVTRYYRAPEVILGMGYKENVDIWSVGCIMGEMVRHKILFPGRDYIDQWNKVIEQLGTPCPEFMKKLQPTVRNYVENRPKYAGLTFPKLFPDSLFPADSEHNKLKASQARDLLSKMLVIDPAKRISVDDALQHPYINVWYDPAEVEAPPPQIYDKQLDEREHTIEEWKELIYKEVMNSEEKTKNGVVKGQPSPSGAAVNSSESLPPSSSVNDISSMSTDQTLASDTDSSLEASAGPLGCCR
In experiment [14] the target is Ribosomal protein S6 kinase alpha-1 (Homo sapiens) (UniProt Q15418). Briefly: Percentage RSK1 activity remaining in the presence of 3uM inhibitor.
Chain of Ribosomal protein S6 kinase alpha-1 (Homo sapiens) (Q15418 whole entry): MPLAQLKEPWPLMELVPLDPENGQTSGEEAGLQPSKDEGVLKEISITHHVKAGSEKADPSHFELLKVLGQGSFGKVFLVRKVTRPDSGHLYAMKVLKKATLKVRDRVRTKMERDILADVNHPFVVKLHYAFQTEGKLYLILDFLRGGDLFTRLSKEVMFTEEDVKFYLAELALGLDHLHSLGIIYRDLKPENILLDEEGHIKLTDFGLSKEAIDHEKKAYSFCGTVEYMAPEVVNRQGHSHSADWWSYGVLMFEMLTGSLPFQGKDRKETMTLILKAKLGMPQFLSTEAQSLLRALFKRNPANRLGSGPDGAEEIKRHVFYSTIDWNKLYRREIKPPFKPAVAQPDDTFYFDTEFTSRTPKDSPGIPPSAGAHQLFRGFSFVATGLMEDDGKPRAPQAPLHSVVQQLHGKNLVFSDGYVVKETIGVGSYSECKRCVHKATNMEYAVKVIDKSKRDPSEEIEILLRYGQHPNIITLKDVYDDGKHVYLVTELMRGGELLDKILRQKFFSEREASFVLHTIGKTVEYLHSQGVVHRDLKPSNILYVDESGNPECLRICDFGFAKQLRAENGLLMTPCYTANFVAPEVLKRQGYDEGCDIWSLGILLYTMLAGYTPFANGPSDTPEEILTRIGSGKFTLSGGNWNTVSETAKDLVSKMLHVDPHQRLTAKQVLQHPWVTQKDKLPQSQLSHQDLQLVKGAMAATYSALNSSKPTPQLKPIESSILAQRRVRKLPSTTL
Experiment [15] deals with Serine/threonine-protein kinase PLK1 (Homo sapiens, UniProt P53350). As to the kind of experiment: Percentage PLK1 activity remaining in the presence of 2uM inhibitor.
The target in experiment [16] is T5, Serine/threonine-protein kinase PAK 4. As to the kind of experiment: Percentage PAK4 activity remaining in the presence of 2uM inhibitor.
The target of experiment [17] is cAMP-dependent protein kinase catalytic subunit alpha (Homo sapiens, UniProt P17612). As to the kind of experiment: Percentage PKA activity remaining in the presence of 2uM inhibitor.
Experiment [18] deals with Ribosomal protein S6 kinase beta-1 (Homo sapiens, UniProt P23443). Briefly: Percentage S6K1 activity remaining in the presence of 2uM inhibitor.
In experiment [19] the target is Mitogen-activated protein kinase 1 (Homo sapiens) (UniProt P28482). Briefly: Percentage ERK2 activity remaining in the presence of 2uM inhibitor.
Experiment [20] addresses T2, Casein kinase I isoform delta. As to the kind of experiment: Percentage CK1delta activity remaining in the presence of 2uM inhibitor.
The target in experiment [21] is Protein kinase C alpha type (Homo sapiens) (UniProt P17252). As to the kind of experiment: Percentage PKCalpha activity remaining in the presence of 25uM inhibitor.

T5 sequence (O96013 whole entry, looked up): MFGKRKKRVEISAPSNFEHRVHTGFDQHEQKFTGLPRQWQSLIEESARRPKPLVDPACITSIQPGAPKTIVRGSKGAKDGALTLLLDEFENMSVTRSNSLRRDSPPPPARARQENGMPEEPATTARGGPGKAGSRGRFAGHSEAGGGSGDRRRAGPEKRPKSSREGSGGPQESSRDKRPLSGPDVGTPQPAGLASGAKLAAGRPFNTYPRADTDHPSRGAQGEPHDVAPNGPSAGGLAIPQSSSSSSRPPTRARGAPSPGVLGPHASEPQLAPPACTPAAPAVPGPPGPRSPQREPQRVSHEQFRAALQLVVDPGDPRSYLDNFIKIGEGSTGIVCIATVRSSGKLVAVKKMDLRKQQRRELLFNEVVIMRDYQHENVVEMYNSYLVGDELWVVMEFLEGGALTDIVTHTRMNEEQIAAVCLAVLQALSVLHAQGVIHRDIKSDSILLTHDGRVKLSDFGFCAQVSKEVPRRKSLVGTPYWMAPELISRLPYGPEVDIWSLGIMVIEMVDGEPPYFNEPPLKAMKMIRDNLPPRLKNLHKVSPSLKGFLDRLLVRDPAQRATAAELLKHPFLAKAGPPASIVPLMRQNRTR
Chain of Ephrin type-A receptor 2 (P29317 whole entry): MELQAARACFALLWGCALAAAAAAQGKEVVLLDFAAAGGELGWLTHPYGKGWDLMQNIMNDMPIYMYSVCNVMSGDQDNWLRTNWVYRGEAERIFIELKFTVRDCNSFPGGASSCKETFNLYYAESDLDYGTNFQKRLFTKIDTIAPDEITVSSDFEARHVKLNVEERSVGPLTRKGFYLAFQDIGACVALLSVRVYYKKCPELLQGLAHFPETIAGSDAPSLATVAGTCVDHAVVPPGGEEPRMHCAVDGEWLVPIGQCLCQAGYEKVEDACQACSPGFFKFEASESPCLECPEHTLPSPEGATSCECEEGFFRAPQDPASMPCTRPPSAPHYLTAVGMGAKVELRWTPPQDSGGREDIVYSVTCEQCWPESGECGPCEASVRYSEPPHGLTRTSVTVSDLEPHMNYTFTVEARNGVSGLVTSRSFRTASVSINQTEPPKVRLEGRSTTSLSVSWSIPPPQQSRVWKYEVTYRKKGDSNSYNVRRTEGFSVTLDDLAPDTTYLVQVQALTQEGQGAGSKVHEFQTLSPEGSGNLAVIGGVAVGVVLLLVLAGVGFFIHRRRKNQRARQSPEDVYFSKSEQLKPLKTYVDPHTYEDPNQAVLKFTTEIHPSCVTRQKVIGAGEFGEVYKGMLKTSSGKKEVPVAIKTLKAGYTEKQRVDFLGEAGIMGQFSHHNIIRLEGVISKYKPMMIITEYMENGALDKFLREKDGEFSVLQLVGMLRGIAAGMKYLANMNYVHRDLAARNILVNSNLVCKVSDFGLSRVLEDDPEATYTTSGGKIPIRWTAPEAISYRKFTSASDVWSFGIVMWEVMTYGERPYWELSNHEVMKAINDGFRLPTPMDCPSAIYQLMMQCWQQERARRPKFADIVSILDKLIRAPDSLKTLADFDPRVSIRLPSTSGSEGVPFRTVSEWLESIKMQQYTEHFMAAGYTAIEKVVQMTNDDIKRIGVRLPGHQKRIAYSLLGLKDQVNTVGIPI
Chain of Proto-oncogene tyrosine-protein kinase LCK (P06240 whole entry): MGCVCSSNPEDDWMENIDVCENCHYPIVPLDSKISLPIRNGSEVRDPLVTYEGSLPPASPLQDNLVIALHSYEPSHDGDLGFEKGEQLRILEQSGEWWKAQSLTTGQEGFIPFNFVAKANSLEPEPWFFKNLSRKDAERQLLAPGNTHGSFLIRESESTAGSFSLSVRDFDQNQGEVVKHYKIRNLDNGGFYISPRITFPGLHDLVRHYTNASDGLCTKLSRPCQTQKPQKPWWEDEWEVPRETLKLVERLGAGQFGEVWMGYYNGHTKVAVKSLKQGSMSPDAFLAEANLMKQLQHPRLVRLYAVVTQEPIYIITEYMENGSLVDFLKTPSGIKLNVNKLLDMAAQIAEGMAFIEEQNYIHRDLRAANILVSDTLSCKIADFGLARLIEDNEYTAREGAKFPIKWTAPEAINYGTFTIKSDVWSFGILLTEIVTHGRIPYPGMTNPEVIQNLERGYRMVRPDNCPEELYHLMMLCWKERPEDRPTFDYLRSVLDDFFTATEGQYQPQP

Regarding `Cc1ccc(-c2c(C(=O)CF)n(CCCO)c3ncnc(N)c23)cc1`, the Activity in experiment [1] worked out at 103%; in experiment [2], 63%; in experiment [3], 80%; in [5], 77%; in experiment [6], 95%; in experiment [7], 89%. Also, the Activity in experiment [8] is 42%; in experiment [9] it was 56%; in experiment [10] it was 10%; in [11], 80%; in [12] it was 91%; in [13] it was 89%. In addition, in experiment [14], the Activity is 92%. Besides, the IC50 in experiment [4] was 0.75 µM (antagonist); at Ephrin type-A receptor 2, 0.76 µM (antagonist).

As for `Cn1cc(C2=C(c3ccc(Cl)cc3Cl)C(=O)NC2=O)c2ccccc21`, the Activity in experiment [15] stood at 62%; in [16] it was 84%; in experiment [17] it was 88%; in experiment [18] it was 86%; in experiment [19] it was 97%; in experiment [20] it was 78%.

For `NCCNS(=O)(=O)c1ccc(Cl)c2ccncc12`, the Activity in experiment [21] stood at 86%.

What is called IC50 is the concentration that inhibits the measured activity by half.
